Reference: ChEMBL document CHEMBL1201862, “PubChem BioAssay data set” (2004)
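All cell lines were grown in 96-well plates and treated with compound for 48 hours. GI50 marks 50% less growth.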 The source made the active and inactive calls. Cut-off read from the data, not from the text of the source: active = GI50 up to about 1.1 µM and inactive = higher.

Key:
Test in all cases: NCI tumour cell line growth inhibition, 48 h
SW-620 = test system: SW-620
LOX IMVI = test system: LOX IMVI
RPMI-8226 = test system: RPMI-8226
OVCAR-4 = test system: OVCAR-4
NCI-H460 = test system: NCI-H460
SK-MEL-2 = test system: SK-MEL-2
NCI-H226 = test system: NCI-H226
SNB-19 = test system: SNB-19
PC-3 = test system: PC-3
ACHN = test system: ACHN
SK-OV-3 = test system: SK-OV-3
EKVX = test system: EKVX
Malme-3M = test system: Malme-3M
HCT-116 = test system: HCT-116
MDA-MB-231 = test system: MDA-MB-231
SN12C = test system: SN12C
OVCAR-5 = test system: OVCAR-5
A498 = test system: A498
HL-60 = test system: HL-60
UO-31 = test system: UO-31

Structure (SMILES) | GI50 (SW-620) | GI50 (LOX IMVI) | GI50 (RPMI-8226) | GI50 (OVCAR-4) | GI50 (NCI-H460) | GI50 (SK-MEL-2) | GI50 (NCI-H226) | GI50 (SNB-19) | GI50 (PC-3) | GI50 (ACHN) | GI50 (SK-OV-3) | GI50 (EKVX) | GI50 (Malme-3M) | GI50 (HCT-116) | GI50 (MDA-MB-231) | GI50 (SN12C) | GI50 (OVCAR-5) | GI50 (A498) | GI50 (HL-60) | GI50 (UO-31)
C[Si](C)(c1ccc(C(=O)O)cc1)c1ccc(C(=O)O)cc1 | > 100 µM (inactive) | > 100 µM (inactive) | > 100 µM (inactive) | > 100 µM (inactive) | > 100 µM (inactive) | > 100 µM (inactive) | > 100 µM (inactive) | > 100 µM (inactive) | > 100 µM (inactive) | > 100 µM (inactive) | > 100 µM (inactive) | > 100 µM (inactive) | > 100 µM (inactive) | > 100 µM (inactive) | > 100 µM (inactive) | > 100 µM (inactive) | > 100 µM (inactive) | > 100 µM (inactive) | – | –
O=[N+]([O-])C(/C=C(\Cl)[N+](=O)[O-])=C(N1CCCCC1)N1CCCCC1 | – | 55.7 µM (inactive) | 30.8 µM (inactive) | 23.9 µM (inactive) | 36.1 µM (inactive) | 30 µM (inactive) | 56.5 µM (inactive) | > 100 µM (inactive) | 39.6 µM (inactive) | 48.9 µM (inactive) | > 100 µM (inactive) | > 100 µM (inactive) | 9.44 µM (inactive) | 21.7 µM (inactive) | 92 µM (inactive) | 45 µM (inactive) | 95.5 µM (inactive) | 41.4 µM (inactive) | 20.1 µM (inactive) | 21.3 µM (inactive)
CC1CCC2C(C)(C)CC3(C)CCC1C23O (stereo not drawn) | 16 µM (inactive) | 15.3 µM (inactive) | – | 22.1 µM (inactive) | 17 µM (inactive) | 14.1 µM (inactive) | 15.3 µM (inactive) | 29.1 µM (inactive) | 13 µM (inactive) | 16.1 µM (inactive) | 29 µM (inactive) | 15.1 µM (inactive) | 13.3 µM (inactive) | 14.8 µM (inactive) | 16.2 µM (inactive) | 16.9 µM (inactive) | 18.9 µM (inactive) | 18.5 µM (inactive) | 1.63 µM (inactive) | 16.4 µM (inactive)
CSc1nc2ccccc2c(=O)n1/N=C1\C(=O)N(CN2CCCCC2)c2ccc(Cl)cc21 | 12.5 µM (inactive) | 14.2 µM (inactive) | – | 30.2 µM (inactive) | 22.7 µM (inactive) | 19.5 µM (inactive) | 75.9 µM (inactive) | 61.5 µM (inactive) | 29.4 µM (inactive) | 28.6 µM (inactive) | 27.4 µM (inactive) | 14.1 µM (inactive) | > 100 µM (inactive) | 18.5 µM (inactive) | 55.1 µM (inactive) | 28.7 µM (inactive) | 64.6 µM (inactive) | 27.8 µM (inactive) | 10.9 µM (inactive) | 45.8 µM (inactive)
Cc1cc(N(CCC#N)CCC#N)ccc1/C=C1N=C(/C=C\c2ccccc2)N(c2ccc(Cl)cc2)C\1=O | 11.6 µM (inactive) | 1.01 µM (active) | – | > 39.4 µM (inactive) | 10.8 µM (inactive) | > 54.8 µM (inactive) | > 100 µM (inactive) | > 100 µM (inactive) | 0.536 µM (active) | 8.32 µM (inactive) | > 87.1 µM (inactive) | > 100 µM (inactive) | 17.7 µM (inactive) | 6.76 µM (inactive) | > 100 µM (inactive) | > 45 µM (inactive) | 22.2 µM (inactive) | > 100 µM (inactive) | 6.05 µM (inactive) | 7.36 µM (inactive)
N#CCCN(CCC#N)c1ccc(/C=C2\N=C(c3ccccc3)N(c3ccc(C(=O)O)cc3)C2=O)cc1 | 21 µM (inactive) | 30.9 µM (inactive) | 46.8 µM (inactive) | 14.4 µM (inactive) | 27.6 µM (inactive) | 52.5 µM (inactive) | 27.9 µM (inactive) | 32.2 µM (inactive) | 37.5 µM (inactive) | 42.5 µM (inactive) | > 100 µM (inactive) | 26.2 µM (inactive) | – | 33.7 µM (inactive) | 52 µM (inactive) | 70.1 µM (inactive) | > 100 µM (inactive) | > 100 µM (inactive) | > 10 µM (inactive) | 77.1 µM (inactive)
CCOC(=O)n1cncc1CC(NC(=O)Cc1c(C(=O)C=C(C)C)[nH]c2ccccc12)C(=O)OC (stereo not drawn) | 25.7 µM (inactive) | 15.5 µM (inactive) | 32.5 µM (inactive) | 18.5 µM (inactive) | 22.3 µM (inactive) | 17 µM (inactive) | 20.8 µM (inactive) | 14.5 µM (inactive) | 17 µM (inactive) | 19.3 µM (inactive) | 17.5 µM (inactive) | 15.5 µM (inactive) | 17.2 µM (inactive) | 27.9 µM (inactive) | 15.5 µM (inactive) | 16.3 µM (inactive) | 15.5 µM (inactive) | 24.9 µM (inactive) | 18 µM (inactive) | 15.7 µM (inactive)
